Measured values taken from patent US10577332B2, “Tetrazole derivatives” (Hoffmann-La Roche Inc., priority 2015, dated 2020).

Key:
[1] = target: T1, human EAAT3 (Homo sapiens, UniProt P43005); assay: FLIPR Membrane Potential (FMP) assay; assay type: cell-based; conditions: HEK-293 cells stably expressing human EAAT3; antagonist applied 15 min before L-glutamate at EC80; Kb by Cheng-Prusoff from IC50
T1 construct: expressed in transfected cells
T1 sequence (P43005 1-524): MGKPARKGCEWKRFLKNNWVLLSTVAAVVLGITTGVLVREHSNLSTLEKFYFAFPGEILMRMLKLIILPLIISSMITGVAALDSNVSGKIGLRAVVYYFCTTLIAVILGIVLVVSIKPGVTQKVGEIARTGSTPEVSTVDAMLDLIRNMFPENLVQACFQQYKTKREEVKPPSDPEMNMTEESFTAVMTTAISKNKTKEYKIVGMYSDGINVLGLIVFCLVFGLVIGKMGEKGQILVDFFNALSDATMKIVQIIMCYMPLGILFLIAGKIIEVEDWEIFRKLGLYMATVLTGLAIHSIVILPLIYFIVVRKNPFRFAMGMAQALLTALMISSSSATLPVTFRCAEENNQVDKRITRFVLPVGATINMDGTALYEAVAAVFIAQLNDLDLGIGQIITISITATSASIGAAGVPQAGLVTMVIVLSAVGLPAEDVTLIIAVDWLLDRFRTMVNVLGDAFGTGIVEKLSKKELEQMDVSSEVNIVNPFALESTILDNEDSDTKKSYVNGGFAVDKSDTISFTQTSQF
Outline: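 HEK-293 cells stably expressing human EAAT3, loaded with membrane-potential dye 1 h at 37 °C in Krebs buffer pH 7.4. Antagonists added 15 min before L-glutamate at EC80; peak fluorescence minus basal read on FLIPR at room temperature. Kb derived from IC50 via Cheng-Prusoff.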

| melting point | Kb [1] | Compound |
| --- | --- | --- |
| 225.5 °C | 260 nM | CC(C)(C)NC(=O)c1cc(-c2ccc(F)c(F)c2)cc(-n2nnnc2C(C)(C)C)c1 [Example 106, N-tert-Butyl-3-(5-tert-butyltetrazol-1-yl)-5-(3,4-difluorophenyl)-benzamide] |
| 222 °C | 120 nM | Cc1ccc(-c2cc(C(=O)NC(C)(C)C)cc(-n3nnnc3C(C)(C)C)c2)cc1 [Example 102, N-tert-Butyl-3-(5-tert-butyltetrazol-1-yl)-5-(4-methylphenyl)-benzamide] |
| 223.5 °C | 100 nM | CC(C)(C)NC(=O)c1cc(-c2ccc(F)cc2)cc(-n2nnnc2C(C)(C)C)c1 [Example 98, N-tert-Butyl-3-(5-tert-butyltetrazol-1-yl)-5-(4-fluorophenyl)-benzamide] |
| 85 °C | 180 nM | Cc1nnnn1-c1cc(C(=O)NC(C)(C)C2CC2)cc(-c2ccc(Cl)cc2)c1 [Example 83, 3-(4-Chlorophenyl)-N-(2-cyclopropylpropan-2-yl)-5-(5-methyltetrazol-1-yl)-benzamide] |
| 212 °C | 250 nM | CC(C)(CO)NC(=O)c1cc(-c2ccc(F)cc2)cc(-n2nnnc2C(C)(C)C)c1 [Example 94, 3-(5-tert-Butyltetrazol-1-yl)-5-(4-fluorophenyl)-N-(1-hydroxy-2-methylpropan-2-yl)-benzamide] |
| 230.5 °C | 87 nM | CC(C)(C)NC(=O)c1cc(-c2ccc(Cl)cc2)cc(-n2nnnc2C(C)(C)C)c1 [Example 91, N-tert-Butyl-3-(5-tert-butyltetrazol-1-yl)-5-(4-chlorophenyl)-benzamide] |
| 119 °C | 170 nM | CCC(C)(C)NC(=O)c1cc(-c2ccc(Cl)cc2)cc(-n2nnnc2C(C)(C)C)c1 [Example 90, 3-(5-tert-Butyltetrazol-1-yl)-5-(4-chlorophenyl)-N-(2-methylbutan-2-yl)-benzamide] |
| 203 °C | 540 nM | Cc1cc(-c2cc(C(=O)NC(C)(C)C(F)(F)F)cc(-n3nnnc3C(C)(C)C)c2)ccc1F [Example 118, 3-(5-tert-Butyltetrazol-1-yl)-5-(4-fluoro-3-methylphenyl)-N-(1,1,1-trifluoro-2-methylpropan-2-yl)-benzamide] |

The next lines start with the molecule.

| Compound | melting point | Kb [1] |
| --- | --- | --- |
| CCC(C)(C)NC(=O)c1cc(-c2ccc(F)cc2)cc(-n2nnnc2C(C)C)c1 [Example 60, 3-(4-Fluorophenyl)-N-(2-methylbutan-2-yl)-5-(5-propan-2-yltetrazol-1-yl)-benzamide] | 69 °C | 210 nM |
| CCC(C)(C)NC(=O)c1cc(-c2ccc(C)cc2)cc(-n2nnnc2C2CC2)c1 [Example 27, 3-(5-Cyclopropyltetrazol-1-yl)-N-(2-methylbutan-2-yl)-5-(4-methylphenyl)-benzamide] | 75 °C | 200 nM |
| CCC(C)(C)NC(=O)c1cc(-c2ccc(F)c(F)c2)cc(-n2cnnn2)c1 [Example 39, 3-(3,4-Difluorophenyl)-N-(2-methylbutan-2-yl)-5-(tetrazol-1-yl)-benzamide] | 189 °C | 200 nM |
| CC1(NC(=O)c2cc(-c3ccc(F)cc3)cc(-n3nnnc3C3CC3)c2)CCS(=O)(=O)C1 (racemic) [Example 77, (RS)-3-(5-Cyclopropyltetrazol-1-yl)-5-(4-fluorophenyl)-N-(3-methyl-1,1-dioxothiolan-3-yl)-benzamide] | 120 °C | 250 nM |
| Cc1ccc(-c2cc(C(=O)NC3(C)CCS(=O)(=O)C3)cc(-n3nnnc3C)c2)cc1 (racemic) [Example 24, (RS)-N-(3-Methyl-1,1-dioxothiolan-3-yl)-3-(4-methylphenyl)-5-(5-methyltetrazol-1-yl)-benzamide] | 69 °C | 380 nM |
| CCC(C)(C)NC(=O)c1cc(-c2ccc(OC)cc2)cc(-n2cnnn2)c1 [Example 7, 3-(4-Methoxyphenyl)-N-(2-methylbutan-2-yl)-5-(tetrazol-1-yl)-benzamide] | 150 °C | 410 nM |
| CC(C)c1nnnn1-c1cc(C(=O)NC(C)(C)C(F)(F)F)cc(-c2ccc(Cl)cc2)c1 [Example 52, 3-(4-Chlorophenyl)-5-(5-propan-2-yltetrazol-1-yl)-N-(1,1,1-trifluoro-2-methylpropan-2-yl)-benzamide] | 90 °C | 340 nM |
| CC1(NC(=O)c2cc(-c3ccc(Cl)cc3)cc(-n3cnnn3)c2)CCS(=O)(=O)C1 (racemic) [Example 16, (RS)-3-(4-Chlorophenyl)-N-(3-methyl-1,1-dioxothiolan-3-yl)-5-(tetrazol-1-yl)-benzamide] | 204 °C | 630 nM |
| CC(C)(C)NC(=O)c1cc(-c2ccc(C(F)(F)F)cc2)cc(-n2cnnn2)c1 [Example 3, N-tert-Butyl-3-(tetrazol-1-yl)-5-[4-(trifluoromethyl)phenyl]-benzamide] | 108 °C | 470 nM |
| CC(C)c1nnnn1-c1cc(C(=O)NC(C)(C)C2CC2)cc(-c2ccc(C(F)(F)F)cc2)c1 [Example 48, N-(2-Cyclopropylpropan-2-yl)-3-(5-propan-2-yltetrazol-1-yl)-5-[4-(trifluoromethyl)phenyl]benzamide] | 90 °C | 420 nM |
| Cc1ccc(-c2cc(C(=O)NC(C)(C)C(F)(F)F)cc(-n3nnnc3C3CC3)c2)cc1 [Example 25, 3-(5-Cyclopropyltetrazol-1-yl)-5-(4-methylphenyl)-N-(1,1,1-trifluoro-2-methylpropan-2-yl)-benzamide] | 82 °C | 270 nM |
| CC(C)c1nnnn1-c1cc(C(=O)NC(C)(C)C)cc(-c2ccc(Cl)cc2)c1 [Example 43, N-tert-Butyl-3-(4-chlorophenyl)-5-(5-propan-2-yltetrazol-1-yl)-benzamide] | 90 °C | 89 nM |
| Cc1nnnn1-c1cc(C(=O)NC2(C)CCS(=O)(=O)C2)cc(-c2ccc(Cl)cc2)c1 (racemic) [Example 65, (RS)-3-(4-Chlorophenyl)-N-(3-methyl-1,1-dioxothiolan-3-yl)-5-(5-methyltetrazol-1-yl)-benzamide] | 155.5 °C | 360 nM |
| CC(C)(CO)NC(=O)c1cc(-c2ccc(Cl)cc2)cc(-n2cnnn2)c1 [Example 15, 3-(4-Chlorophenyl)-N-(1-hydroxy-2-methylpropan-2-yl)-5-(tetrazol-1-yl)-benzamide] | 137 °C | 800 nM |
| CC(C)c1nnnn1-c1cc(C(=O)NC(C)(C)C2CC2)cc(-c2ccc(Cl)cc2)c1 [Example 44, 3-(4-Chlorophenyl)-N-(2-cyclopropylpropan-2-yl)-5-(5-propan-2-yltetrazol-1-yl)-benzamide] | 83 °C | 210 nM |
| CC(C)c1nnnn1-c1cc(C(=O)NC2(C)CCS(=O)(=O)C2)cc(-c2ccc(Cl)cc2)c1 (racemic) [Example 45, (RS)-3-(4-Chlorophenyl)-N-(3-methyl-1,1-dioxothiolan-3-yl)-5-(5-propan-2-yltetrazol-1-yl)benzamide] | 73 °C | 260 nM |
| CC1(NC(=O)c2cc(-c3ccc(F)cc3)cc(-n3cnnn3)c2)CCS(=O)(=O)C1 (racemic) [Example 4, (RS)-3-(4-Fluorophenyl)-N-(3-methyl-1,1-dioxothiolan-3-yl)-5-(tetrazol-1-yl)-benzamide] | 146.5 °C | 460 nM |
